Laboratory results: ChEMBL document CHEMBL3880421, “Indazole compounds and pharmaceutical compositions for inhibiting protein kinases, and methods for their use” (2003)

Assay: Antiproliferative activity against VEGF-stimulated HUVEC cells assessed as reduction in cell viability at 10 nM preincubated for 1 hr followed by addition of VEGF measured after 72 hrs by MTT assay
Format: functional
Settings: Homo sapiens

SMILES | inhibition at 0.01 µM [%]
Cc1ccc(C2(C(=O)Nc3cccc(C(=O)c4ccc5c(/C=C/c6ccccc6)n[nH]c5c4)c3)CC2)cc1 | 0
O=C(Cc1cc(F)ccc1F)Nc1cccc(C(=O)c2ccc3c(/C=C/c4ccccc4)n[nH]c3c2)c1 | 80
Cc1cc(C(=O)Nc2cccc(Oc3ccc4c(/C=C/c5ccccc5)n[nH]c4c3)c2)n[nH]1 | 150
CC(C)c1ccccc1C(=O)Nc1cccc(C(=O)c2ccc3c(/C=C/c4ccccc4)n[nH]c3c2)c1 | 51
COc1cccc(CC(=O)Nc2cccc(Nc3ccc4c(/C=C/c5ccccc5)n[nH]c4c3)c2)c1 | 34
CN1CCC=C(C(=O)Nc2cccc(C(=O)c3ccc4c(/C=C/c5ccccc5)n[nH]c4c3)c2)C1 | 20
O=C(Nc1cccc(C(=O)c2ccc3c(/C=C/c4ccccc4)n[nH]c3c2)c1)C1=C[C@@H](O)[C@@H](O)[C@H](O)C1 | -20
CCCN(CCC)CC(=O)Nc1cccc(C(=O)c2ccc3c(/C=C/c4ccccc4)n[nH]c3c2)c1 | -2
O=C1NCC(C(=O)Nc2cccc(Oc3ccc4c(/C=C/c5ccccc5)n[nH]c4c3)c2)N1 (configuration not stated) | 40
CCNc1ccccc1C(=O)Nc1cccc(Oc2ccc3c(/C=C/c4ccccc4)n[nH]c3c2)c1 | 85
C/C=C(\C)C(=O)Nc1cccc(Nc2ccc3c(/C=C/c4ccccc4)n[nH]c3c2)c1 | 98
Cc1ccc(C2(C(=O)Nc3cccc(Nc4ccc5c(/C=C/c6ccccc6)n[nH]c5c4)c3)CC2)cc1 | 2
CCC(C(=O)Nc1cccc(Nc2ccc3c(/C=C/c4ccccc4)n[nH]c3c2)c1)c1ccccc1C (configuration not stated) | -3
C/C(=C\C(=O)Nc1cccc(Oc2ccc3c(/C=C/c4ccccc4)n[nH]c3c2)c1)c1ccccc1C | 52
O=C1NCC(C(=O)Nc2cccc(C(=O)c3ccc4c(/C=C/c5ccccc5)n[nH]c4c3)c2)N1 (configuration not stated) | 21
CN(C)C(=S)SCC(=O)Nc1cccc(C(=O)c2ccc3c(/C=C/c4ccccc4)n[nH]c3c2)c1 | 25
O=C(CC1CC2CCC1C2)Nc1cccc(Oc2ccc3c(/C=C/c4ccccc4)n[nH]c3c2)c1 (configuration not stated) | 78
CCC(C(=O)Nc1cccc(C(=O)c2ccc3c(/C=C/c4ccccc4)n[nH]c3c2)c1)c1ccccc1C (configuration not stated) | 3
Cc1cc(C(=O)Nc2cccc(Nc3ccc4c(/C=C/c5ccccc5)n[nH]c4c3)c2)oc(=O)c1 | -8
CO[C@H](C(=O)Nc1cccc(Oc2ccc3c(/C=C/c4ccccc4)n[nH]c3c2)c1)c1ccccc1 | 30
O=C(Cc1cc(F)ccc1F)Nc1cccc(Nc2ccc3c(/C=C/c4ccccc4)n[nH]c3c2)c1 | 64
O=C(Nc1cccc(Nc2ccc3c(/C=C/c4ccccc4)n[nH]c3c2)c1)c1cc(=O)[nH]c(=O)[nH]1 | 12
CC(C)(C)c1ccc(C(=O)Nc2cccc(Oc3ccc4c(/C=C/c5ccccc5)n[nH]c4c3)c2)o1 | 52
CC1(C)C(C(=O)Nc2cccc(C(=O)c3ccc4c(/C=C/c5ccccc5)n[nH]c4c3)c2)C1(C)C | 51

SMILES | inhibition at 0.01 µM [%]
O=C(CCN1CCCCC1)Nc1cccc(Oc2ccc3c(/C=C/c4ccccc4)n[nH]c3c2)c1 | 52
O=C(Nc1cccc(Nc2ccc3c(/C=C/c4ccccc4)n[nH]c3c2)c1)C1CC2C=CC1CC2 (configuration not stated) | 6
O=C(Cc1cc(F)cc(F)c1)Nc1cccc(Oc2ccc3c(/C=C/c4ccccc4)n[nH]c3c2)c1 | 80
O=C(Cc1cccnc1)Nc1cccc(Oc2ccc3c(/C=C/c4ccccc4)n[nH]c3c2)c1 | 76
CCC(C(=O)Nc1cccc(Oc2ccc3c(/C=C/c4ccccc4)n[nH]c3c2)c1)c1ccccc1C (configuration not stated) | 46
C[C@@]12C[C@H]3C[C@H]1C[C@@]3(C(=O)Nc1cccc(C(=O)c3ccc4c(/C=C/c5ccccc5)n[nH]c4c3)c1)C2 | -1
CN(C)CCCC(=O)Nc1cccc(Nc2ccc3c(/C=C/c4ccccc4)n[nH]c3c2)c1 | 30
CN1CSCCC1C(=O)Nc1cccc(Oc2ccc3c(/C=C/c4ccccc4)n[nH]c3c2)c1 (configuration not stated) | 23
CC(C)[C@@H](O)C(=O)Nc1cccc(Nc2ccc3c(/C=C/c4ccccc4)n[nH]c3c2)c1 | 3
CC(C)=NOC(C)C(=O)Nc1cccc(Oc2ccc3c(/C=C/c4ccccc4)n[nH]c3c2)c1 (configuration not stated) | 80
Cc1cc(C(=O)Nc2cccc(Oc3ccc4c(/C=C/c5ccccc5)n[nH]c4c3)c2)oc(=O)c1 | 83
CC1(C)C(C(=O)Nc2cccc(Nc3ccc4c(/C=C/c5ccccc5)n[nH]c4c3)c2)C1(C)C | 25
Cc1cc(C(=O)Nc2cccc(Nc3ccc4c(/C=C/c5ccccc5)n[nH]c4c3)c2)c(C)[nH]1 | 76
CC1(C)OC(=O)CC1C(=O)Nc1cccc(Oc2ccc3c(/C=C/c4ccccc4)n[nH]c3c2)c1 (configuration not stated) | 25
CCO/C(C)=C/C(=O)Nc1cccc(Nc2ccc3c(/C=C/c4ccccc4)n[nH]c3c2)c1 | 85
Cc1nc(S)sc1CC(=O)Nc1cccc(Nc2ccc3c(/C=C/c4ccccc4)n[nH]c3c2)c1 | 19
C[C@@H]1[C@H](C)[C@H](C)C[C@@H]1C(=O)Nc1cccc(C(=O)c2ccc3c(/C=C/c4ccccc4)n[nH]c3c2)c1 | 5
CC1(C)OC(=O)CC1C(=O)Nc1cccc(C(=O)c2ccc3c(/C=C/c4ccccc4)n[nH]c3c2)c1 (configuration not stated) | 5
O=C(Cn1ccc2ccccc21)Nc1cccc(C(=O)c2ccc3c(/C=C/c4ccccc4)n[nH]c3c2)c1 | -11
O=C1CC[C@H](C(=O)Nc2cccc(C(=O)c3ccc4c(/C=C/c5ccccc5)n[nH]c4c3)c2)N1 | 32
CC(C)=NOC(C)C(=O)Nc1cccc(C(=O)c2ccc3c(/C=C/c4ccccc4)n[nH]c3c2)c1 (configuration not stated) | 28
CC1(C)OC(=O)[C@H](CC(=O)Nc2cccc(Nc3ccc4c(/C=C/c5ccccc5)n[nH]c4c3)c2)O1 | 20
O=C(Cc1cccnc1)Nc1cccc(Nc2ccc3c(/C=C/c4ccccc4)n[nH]c3c2)c1 | 43
CC(=O)N1CCC(C(=O)Nc2cccc(C(=O)c3ccc4c(/C=C/c5ccccc5)n[nH]c4c3)c2)CC1 | 33

SMILES | inhibition at 0.01 µM [%]
COC1CCCC(C(=O)Nc2cccc(C(=O)c3ccc4c(/C=C/c5ccccc5)n[nH]c4c3)c2)C1 (configuration not stated) | 30
Cc1cc(C(=O)Nc2cccc(Nc3ccc4c(/C=C/c5ccccc5)n[nH]c4c3)c2)nn1C | 95
COc1ccccc1/C=C/C(=O)Nc1cccc(C(=O)c2ccc3c(/C=C/c4ccccc4)n[nH]c3c2)c1 | 47
COc1cccc(CC(=O)Nc2cccc(C(=O)c3ccc4c(/C=C/c5ccccc5)n[nH]c4c3)c2)c1 | 87
COc1cccc(/C=C/C(=O)Nc2cccc(C(=O)c3ccc4c(/C=C/c5ccccc5)n[nH]c4c3)c2)c1 | 35
CC1CC1C(=O)Nc1cccc(C(=O)c2ccc3c(/C=C/c4ccccc4)n[nH]c3c2)c1 (configuration not stated) | 96
CC(C)c1ccccc1C(=O)Nc1cccc(Oc2ccc3c(/C=C/c4ccccc4)n[nH]c3c2)c1 | 35
O=C(/C=C/C1C[C@H]2C=C[C@H]1C2)Nc1cccc(Nc2ccc3c(/C=C/c4ccccc4)n[nH]c3c2)c1 (some centres not stated) | 30
O=C(Cc1cc(F)cc(F)c1)Nc1cccc(Nc2ccc3c(/C=C/c4ccccc4)n[nH]c3c2)c1 | 77
C[C@@H]1[C@H](C)[C@H](C)C[C@@H]1C(=O)Nc1cccc(Nc2ccc3c(/C=C/c4ccccc4)n[nH]c3c2)c1 | 7
CC(C)CC(=O)C(=O)Nc1cccc(Oc2ccc3c(/C=C/c4ccccc4)n[nH]c3c2)c1 | 64
CCO/C(C)=C/C(=O)Nc1cccc(C(=O)c2ccc3c(/C=C/c4ccccc4)n[nH]c3c2)c1 | 72
O=C1CC[C@H](C(=O)Nc2cccc(Nc3ccc4c(/C=C/c5ccccc5)n[nH]c4c3)c2)N1 | 20
O=C(c1cccc(NC(=O)C2C[C@H]3C[C@@H]2CCC3O)c1)c1ccc2c(/C=C/c3ccccc3)n[nH]c2c1 (some centres not stated) | 27
CC(=O)NC(C)(C)CC(=O)Nc1cccc(Oc2ccc3c(/C=C/c4ccccc4)n[nH]c3c2)c1 | 42
O=C(Nc1cccc(Oc2ccc3c(/C=C/c4ccccc4)n[nH]c3c2)c1)C1C[C@H]2C[C@@H]1CCC2O (some centres not stated) | 52
O=C(Nc1cccc(Oc2ccc3c(/C=C/c4ccccc4)n[nH]c3c2)c1)c1cc(=O)[nH]c(=O)[nH]1 | 90
O=C(Nc1cccc(Oc2ccc3c(/C=C/c4ccccc4)n[nH]c3c2)c1)C1CC2C=CC1CC2 (configuration not stated) | 13
C[C@@H](CC(=O)Nc1cccc(C(=O)c2ccc3c(/C=C/c4ccccc4)n[nH]c3c2)c1)c1ccccc1 | 52
CO[C@H](C(=O)Nc1cccc(Nc2ccc3c(/C=C/c4ccccc4)n[nH]c3c2)c1)c1ccccc1 | 80
CC(=O)c1ccc(C(=O)Nc2cccc(Nc3ccc4c(/C=C/c5ccccc5)n[nH]c4c3)c2)s1 | 78
Cc1cc(C(=O)Nc2cccc(C(=O)c3ccc4c(/C=C/c5ccccc5)n[nH]c4c3)c2)c(C)[nH]1 | 26
Cc1cc(C(=O)Nc2cccc(Oc3ccc4c(/C=C/c5ccccc5)n[nH]c4c3)c2)c(C)[nH]1 | 52
O=C(Nc1cccc(Oc2ccc3c(/C=C/c4ccccc4)n[nH]c3c2)c1)C(O)c1ccccc1 (configuration not stated) | 56

Assay: Terminal half life in B6 mouse at 50 mg/kg, po by UV-HPLC analysis
Format: ADME, organism-based
Settings: B6, mouse, in vivo, read-out: beta t1/2 (converted)

SMILES | half-life [h]
CC(C)ONC(=O)c1ccccc1Sc1ccc2c(/C=C/c3ccccn3)n[nH]c2c1 | 1.1

Same assay, conditions: mouse, in vivo, BLD = below limit of detection

beta t1/2 | SMILES
Bld | Cc1cc(C(=O)Nc2cccc(C(=O)c3ccc4c(/C=C/c5ccccn5)n[nH]c4c3)c2)on1
Bld | O=C(Nc1cccc(C(=O)c2ccc3c(-c4nc5cccnc5[nH]4)n[nH]c3c2)c1)c1ccccc1

Assay: Terminal half life in B6 mouse at 25 mg/kg, ip by UV-HPLC analysis
Format: ADME, organism-based
Settings: in vivo, read-out: beta t1/2 (converted)

half-life [h] | SMILES
2.4 | O=C(Nc1cccc(Oc2ccc3c(/C=C/c4ccccn4)n[nH]c3c2)c1)c1ccccc1
1.8 | CCOCCNC(=O)c1ccccc1Sc1ccc2c(/C=C/c3ccccn3)n[nH]c2c1
